{"source": "patent US5968912A", "about": "“Methods for immunosuppressing” (Immune Modulation, Inc., priority 1997, dated 1999)", "assay_type_in_all_cases": "cell-based, human", "key": {"[1]": {"tested_on": "mononuclear leukocytes (Two-way MLR)", "experiment": "Two-way mixed leukocyte reaction (MLR), 3H-thymidine incorporation", "settings": "for inhibition at 0.01 µM / inhibition at 0.1 µM / inhibition at 1 µM / inhibition at 10 µM / inhibition at 100 µM: Homo sapiens, Leukocyte"}, "[2]": {"tested_on": "Protein Kinase-C-Mediated T-cell Proliferation (PBMC)", "experiment": "PK-C-mediated T-cell proliferation (PMA + A23187)", "settings": "PMA 1.25 ng/mL + A23187 0.25 μM; for Proliferation: 100 μM; for inhibition at 100 µM: Homo sapiens, T-cell", "method": "Determination of the effect of HE-33 on PK-C-mediated signaling pathway\nPBMC of a healthy volunteer were cultured in 96-well microtiter plates at 2×10^5 cells/well. […] Forskolin is an agent well known to increase intacellular cAMP levels by activating adenylate cyclase. Cultures were incubated for 3 days at 37° C. in a 5% CO2 incubator. Proliferative response was determined by incorporation of ^3 H-thymidine.. The results were expressed in CPM and % inhibition of proliferation (Table 7)."}, "IL-2": {"tested_on": "IL-2", "experiment": "IL-2 production in PHA-stimulated PBMC cultures", "design": "% Inhibition of IL-2 production: concentration or dose not given beside the values", "method": "(§1) Production of autocrine growth factors (IL-2, IL-4, IL-10 and Interferon-gamma) in PHA-stimulated human PBMC cultures\n(§2) Culture supernatants were collected at the times indicated and frozen at -20° C. At the end of 96 hr., all supernatants were assayed by enzyme immunoassay for the presence of the cytokines: interleukin-2, -4, -10 and interferon (IFN)-gamma. Results were expressed in pg/mL concentration of cytokine and % inhibition of cytokine production."}, "IL-4": {"tested_on": "IL-4", "experiment": "IL-4 production in PHA-stimulated PBMC cultures", "design": "% Inhibition of IL-4 production: concentration or dose not given beside the values", "method": "as §1, §2"}, "IL-10": {"tested_on": "IL-10", "experiment": "IL-10 production in PHA-stimulated PBMC cultures", "design": "% Inhibition of IL-10 production: concentration or dose not given beside the values", "method": "as §1, §2"}, "Interferon-gamma": {"tested_on": "Interferon-gamma", "experiment": "Interferon-gamma production in PHA-stimulated PBMC cultures", "design": "% Inhibition of IFN-γ production: concentration or dose not given beside the values", "method": "as §1, §2"}}, "data": [{"smiles": "Cc1ccc(S(=O)(=O)O[C@@H]2[C@@H]3OP(=O)(O)OC[C@H]3O[C@H]2n2cnc3c(N)ncnc32)cc1", "note": "[Compound 1-5, 2'-O-Tosyl-c-AMP]", "values": [{"measurement": "inhibition at 0.01 µM", "setting": "[1]", "value": 0, "unit": "%"}, {"measurement": "inhibition at 0.1 µM", "setting": "[1]", "value": 16, "unit": "%"}, {"measurement": "inhibition at 1 µM", "setting": "[1]", "value": 25, "unit": "%"}, {"measurement": "inhibition at 10 µM", "setting": "[1]", "value": 24, "unit": "%"}, {"measurement": "inhibition at 100 µM", "setting": "[1]", "value": 58, "unit": "%"}]}, {"smiles": "CCCN(CCC)c1ncnc2c1ncn2[C@@H]1O[C@@H]2COP(=O)(O)O[C@H]2[C@H]1OS(=O)(=O)c1ccc(C)cc1", "note": "[Compound 1-15, N^6,N^6-di-n-Propyl-2'-O-tosyl-c-AMP]", "values": [{"measurement": "inhibition at 0.01 µM", "setting": "[1]", "value": 0, "unit": "%"}, {"measurement": "inhibition at 0.1 µM", "setting": "[1]", "value": 6, "unit": "%"}, {"measurement": "inhibition at 1 µM", "setting": "[1]", "value": 9, "unit": "%"}, {"measurement": "inhibition at 10 µM", "setting": "[1]", "value": 25, "unit": "%"}, {"measurement": "inhibition at 100 µM", "setting": "[1]", "value": 99.4, "unit": "%"}]}, {"smiles": "CCCNc1ncnc2c1ncn2[C@@H]1O[C@@H]2COP(=O)(O)O[C@H]2[C@H]1O", "note": "[Compound 1-16]", "values": [{"measurement": "inhibition at 0.01 µM", "setting": "[1]", "value": 0, "unit": "%"}, {"measurement": "inhibition at 0.1 µM", "setting": "[1]", "value": 2.2, "unit": "%"}, {"measurement": "inhibition at 1 µM", "setting": "[1]", "value": 12.5, "unit": "%"}, {"measurement": "inhibition at 10 µM", "setting": "[1]", "value": 90.7, "unit": "%"}, {"measurement": "inhibition at 100 µM", "setting": "[1]", "value": 99.8, "unit": "%"}]}, {"smiles": "CCCCN(CCCC)c1ncnc2c1ncn2[C@@H]1O[C@@H]2COP(=O)(O)O[C@H]2[C@H]1OS(=O)(=O)c1ccc(C)cc1", "note": "[Compound 1-22]", "values": [{"measurement": "inhibition at 0.01 µM", "setting": "[1]", "value": 0, "unit": "%"}, {"measurement": "inhibition at 0.1 µM", "setting": "[1]", "value": 7, "unit": "%"}, {"measurement": "inhibition at 1 µM", "setting": "[1]", "value": 4, "unit": "%"}, {"measurement": "inhibition at 10 µM", "setting": "[1]", "value": 0, "unit": "%"}, {"measurement": "inhibition at 100 µM", "setting": "[1]", "value": 99, "unit": "%"}]}, {"smiles": "CCCCN(CCCC)c1ncnc2c1ncn2[C@@H]1O[C@@H]2COP(=O)(O)O[C@H]2[C@H]1O", "note": "[Compound 1-24]", "values": [{"measurement": "inhibition at 0.01 µM", "setting": "[1]", "value": 0, "unit": "%"}, {"measurement": "inhibition at 0.1 µM", "setting": "[1]", "value": 27, "unit": "%"}, {"measurement": "inhibition at 1 µM", "setting": "[1]", "value": 78, "unit": "%"}, {"measurement": "inhibition at 10 µM", "setting": "[1]", "value": 97, "unit": "%"}, {"measurement": "inhibition at 100 µM", "setting": "[1]", "value": 100, "unit": "%"}, {"measurement": "Inhibitory capacity on two-way MLR, in words", "setting": "[1]; two-way MLR", "value": "significant inhibitory capacity"}, {"measurement": "Proliferation", "setting": "[2]", "value": 16, "unit": "CPM"}, {"measurement": "inhibition at 100 µM", "setting": "[2]", "value": 98, "unit": "%"}]}, {"smiles": "CCCN(CCC)c1ncnc2c1nc(SCc1ccccc1)n2[C@@H]1O[C@@H]2COP(=O)(O)O[C@H]2[C@H]1O", "note": "[Compound 1-42]", "values": [{"measurement": "inhibition at 1 µM", "setting": "[1]", "value": 0, "unit": "%"}, {"measurement": "inhibition at 10 µM", "setting": "[1]", "value": 31, "unit": "%"}, {"measurement": "inhibition at 100 µM", "setting": "[1]", "value": 89, "unit": "%"}]}, {"smiles": "CCCN(CCC)c1ncnc2c1ncn2[C@@H]1O[C@H](CO)[C@@H](O)[C@H]1O", "note": "[Compound 1-46]", "values": [{"measurement": "inhibition at 1 µM", "setting": "[1]", "value": 12, "unit": "%"}, {"measurement": "inhibition at 10 µM", "setting": "[1]", "value": 83, "unit": "%"}, {"measurement": "inhibition at 100 µM", "setting": "[1]", "value": 98, "unit": "%"}]}, {"smiles": "CCN(CC)c1ncnc2c1ncn2[C@@H]1O[C@H](CO)[C@@H](O)[C@H]1O", "note": "[Compound 1-50]", "values": [{"measurement": "inhibition at 1 µM", "setting": "[1]", "value": 13, "unit": "%"}, {"measurement": "inhibition at 10 µM", "setting": "[1]", "value": 45, "unit": "%"}, {"measurement": "inhibition at 100 µM", "setting": "[1]", "value": 88, "unit": "%"}]}, {"smiles": "C=CC[C@@H]1/C=C(\\C)C[C@H](C)C[C@H](OC)[C@H]2O[C@@](O)(C(=O)C(=O)N3CCCC[C@H]3C(=O)O[C@H](/C(C)=C/[C@@H]3CC[C@@H](O)[C@H](OC)C3)[C@H](C)[C@@H](O)CC1=O)[C@H](C)C[C@@H]2OC", "note": "[Fk506, reference compound]", "values": [{"measurement": "% Inhibition of IL-2 production", "setting": "IL-2; 24 hours", "value": 100, "unit": "%"}, {"measurement": "IL-2 production", "setting": "IL-2; 24 hours", "value": 0.7, "unit": "pg/mL"}, {"measurement": "% Inhibition of IL-2 production", "setting": "IL-2; 48 hours", "value": 97, "unit": "%"}, {"measurement": "IL-2 production", "setting": "IL-2; 48 hours", "value": 16, "unit": "pg/mL"}, {"measurement": "% Inhibition of IL-2 production", "setting": "IL-2; 72 hours", "value": 91, "unit": "%"}, {"measurement": "IL-2 production", "setting": "IL-2; 72 hours", "value": 16, "unit": "pg/mL"}, {"measurement": "% Inhibition of IL-2 production", "setting": "IL-2; 96 hours", "value": 0, "unit": "%"}, {"measurement": "IL-2 production", "setting": "IL-2; 96 hours", "value": 23, "unit": "pg/mL"}, {"measurement": "% Inhibition of IL-4 production", "setting": "IL-4; 24 hours", "value": 98, "unit": "%"}, {"measurement": "IL-4 production", "setting": "IL-4; 24 hours", "value": 18, "unit": "pg/mL"}, {"measurement": "% Inhibition of IL-4 production", "setting": "IL-4; 48 hours", "value": 99, "unit": "%"}, {"measurement": "IL-4 production", "setting": "IL-4; 48 hours", "value": 17, "unit": "pg/mL"}, {"measurement": "% Inhibition of IL-4 production", "setting": "IL-4; 72 hours", "value": 99, "unit": "%"}, {"measurement": "IL-4 production", "setting": "IL-4; 72 hours", "value": 10, "unit": "pg/mL"}, {"measurement": "% Inhibition of IL-4 production", "setting": "IL-4; 96 hours", "value": 93, "unit": "%"}, {"measurement": "IL-4 production", "setting": "IL-4; 96 hours", "value": 10, "unit": "pg/mL"}, {"measurement": "% Inhibition of IL-10 production", "setting": "IL-10; 24 hours", "value": 69, "unit": "%"}, {"measurement": "IL-10 production", "setting": "IL-10; 24 hours", "value": 173, "unit": "pg/mL"}, {"measurement": "% Inhibition of IL-10 production", "setting": "IL-10; 48 hours", "value": 77, "unit": "%"}, {"measurement": "IL-10 production", "setting": "IL-10; 48 hours", "value": 235, "unit": "pg/mL"}, {"measurement": "% Inhibition of IL-10 production", "setting": "IL-10; 72 hours", "value": 61, "unit": "%"}, {"measurement": "IL-10 production", "setting": "IL-10; 72 hours", "value": 228, "unit": "pg/mL"}, {"measurement": "% Inhibition of IL-10 production", "setting": "IL-10; 96 hours", "value": 76, "unit": "%"}, {"measurement": "IL-10 production", "setting": "IL-10; 96 hours", "value": 200, "unit": "pg/mL"}, {"measurement": "% Inhibition of IFN-γ production", "setting": "Interferon-gamma; 24 hours", "value": 100, "unit": "%"}, {"measurement": "IFN-γ production", "setting": "Interferon-gamma; 24 hours", "value": 0, "unit": "pg/mL"}, {"measurement": "% Inhibition of IFN-γ production", "setting": "Interferon-gamma; 48 hours", "value": 98, "unit": "%"}, {"measurement": "IFN-γ production", "setting": "Interferon-gamma; 48 hours", "value": 155, "unit": "pg/mL"}, {"measurement": "% Inhibition of IFN-γ production", "setting": "Interferon-gamma; 72 hours", "value": 92, "unit": "%"}, {"measurement": "IFN-γ production", "setting": "Interferon-gamma; 72 hours", "value": 232, "unit": "pg/mL"}, {"measurement": "% Inhibition of IFN-γ production", "setting": "Interferon-gamma; 96 hours", "value": 96, "unit": "%"}, {"measurement": "IFN-γ production", "setting": "Interferon-gamma; 96 hours", "value": 225, "unit": "pg/mL"}]}, {"smiles": "C=C[C@@]1(C)CC(=O)[C@]2(O)[C@@]3(C)[C@@H](O)CCC(C)(C)[C@@H]3[C@H](O)[C@H](OC(C)=O)[C@@]2(C)O1", "note": "[Forskolin, reference compound]", "values": [{"measurement": "inhibition at 0.01 µM", "setting": "[1]", "value": 20, "unit": "%"}, {"measurement": "inhibition at 0.1 µM", "setting": "[1]", "value": 28, "unit": "%"}, {"measurement": "inhibition at 1 µM", "setting": "[1]", "value": 31, "unit": "%"}, {"measurement": "inhibition at 10 µM", "setting": "[1]", "value": 55, "unit": "%"}, {"measurement": "inhibition at 100 µM", "setting": "[1]", "value": 60, "unit": "%"}, {"measurement": "Proliferation", "setting": "[2]", "value": 476, "unit": "CPM"}, {"measurement": "inhibition at 100 µM", "setting": "[2]", "value": 55, "unit": "%"}]}, {"smiles": "CCCC(=O)Nc1ncnc2c1ncn2[C@@H]1O[C@@H]2COP(=O)(O)O[C@H]2[C@H]1OC(=O)CCC", "note": "[dbcAMP, reference compound]", "values": [{"measurement": "Proliferation", "setting": "[2]", "value": 645, "unit": "CPM"}, {"measurement": "inhibition at 100 µM", "setting": "[2]", "value": 38, "unit": "%"}]}]}
